Where two headings read alike, the source gives them in different places.
Key:
Caspase-1 = Caspase-1 (Homo sapiens (Human), UniProt P29466); assay: Caspase-1 Inhibitor Drug Screening Kit, fluorometric (AFC liberation); assay type: biochemical; settings: for IC50: 30-minute incubation at 37° C., approximations of the average values, read-out: Caspase enzymatic activity, IC50 (uM) Caspase 1
Experimental: (§1) The level of inhibition of caspase-1, -3, -5, -7, -9 activity was determined by comparison of the relative fluorescence intensity in samples with or without the compound.

Caspase-3 = Caspase-3 (Homo sapiens (Human), UniProt P42574); assay: Caspase-3 Inhibitor Drug Screening Kit, fluorometric (AFC liberation); assay type: biochemical
Experimental: as §1

[1] = tested on: proteolytic cleavage of PARP (poly ADP-ribose polymerase) in Hela cells; assay: Inhibition of staurosporine-induced PARP cleavage in live Hela cells; assay type: cell-based; settings: for inhibition at 50 µM: Homo sapiens, HeLa
Experimental: To test the efficacy of caspase-3 inhibitors at the cellular level, the ability of selected compounds to inhibit the proteolytic cleavage of PARP (poly ADP-ribose polymerase) was evaluated in live Hela cells.
Briefly, in this assay Hela cells are seeded in 96 well plates and incubated for 4 hours with staurosporine, a well characterized inducer of apoptosis, alone or together with different concentrations of compound (50, 25, 10 and 3 uM). After formaldehyde-based fixation, the cells are stained with a fluorescein-labeled anti-cleaved PARP antibody (Cell signaling, Cat#: 9547) and counterstained with Hoechst33342 (Invitrogen, Cat#: H3570) to mark all nuclei. Fluorescence images are taken on a Cellomics™ microscope system (Thermo Scientific, Pittsburgh, USA) with the Hoechst stain in the blue channel and the cleaved PARP antibody stain in the green channel. The percentage of cleaved PARP positive cells is determined by calculating the ratio between nuclei with a cleaved PARP antibody staining above a certain threshold and all (Hoechst positive) nuclei. The efficacy of caspase-3 inhibition is determined by calculating the ratio between cleaved PARP positive cells after staurosporine incubation together with compounds and staurosporine incubation without compounds.

EAE in C57BL/6 mice = assay: Chronic EAE mouse model (MOG35-55 immunization), daily clinical score and body weight; assay type: in vivo; design: key to Delay in onset of the disease / Reduction in severity of the disease / Reduction in body weight loss: +++: high level improvement; ++: moderate improvement; +: small improvement; −: no improvement; settings: for Delay in onset of the disease / Reduction in body weight loss / Reduction in severity of the disease: average overall effects on the EAE model, i.p.
Text: The aim of this study was to verify the effectiveness of compounds in a chronic mouse animal model of EAE. EAE is a good proof-of-principle model of neurodegeneration since it encompasses degeneration or destruction of practically all the cells in the central nervous system, includes most major immunomodulatory components, and is able to maintain normal innate regenerative functions in the animal. This is a standard model (Antel J P et al., J Neurosci Res. 1997, 50: 345-353) used mainly to mimic the course evolution of Multiple Sclerosis (MS) in humans, and is commonly used for studying disease mechanisms and testing potential therapies. EAE is induced by immunization with myelin proteins, leading to development of myelin-specific T cells. These autoreactive T cells traffic into CNS parenchyma where they initiate an inflammatory cascade through recruitment of other cells such as monocytes and neutrophils. Accumulation of immune cells within CNS leads to myelin damage, axonal loss and clinical deficit in affected animals. EAE can be induced in a variety of species and strains of animals [mice, Rat, marmoset monkey, rhesus macaques] using various CNS antigens [Myelin Oligodendrocyte Glycoprotein (MOG), proteolipid protein (PLP) and myelin basic protein (MBP)]. Seven to 8 week old female C57BL/6 mice were purchased from Charles River Laboratories, and housed at MISPRO™ animal facility for one week before experimentation for adaptation to the new environment. All proper animal experimentation and ethics approvals were obtained prior to the start of any experiments. Mice were immunized subcutaneously with 100 μg of MOG35-55 (Sheldon Biotechnology Centre, McGill University) in CFA containing 5 mg/ml of desiccated (killed and dried) Mycobacterium tuberculosis H37Ra (Difco, Inc), at two sites on the back. The mice were then injected with 200 ng of pertussis toxin (List Biological Laboratories, Inc) in PBS intraperitoneally on days 0 and 2 using 25 gauge needles and scored daily using an EAE clinical scale as detailed below (Touil T et al., J Neurol Sci. 2008, 271:191-202; Antel J P et al., 1997, supra; Owens T et al., Curr Pharm Des. 2005, 1:1031-1037).
EAE was clinically assessed throughout the experiments by daily scoring using a scale from 0 to 5 as follows: partial limp tail, 0.5; full limp tail, 1; limp tail and waddling gait, 1.5; paralysis of one hind limb, 2; paralysis of one hind limb and partial paralysis of other hind limb, 2.5; paralysis of both hind limbs, 3; ascending paralysis, 3.5; paralysis of trunk, 4; moribund, 4.5; death, 5. In all the EAE models a body weight loss is always associated with the clinical signs. This body weight loss is associated with the loss of the function and the paralysis of the muscle (atrophy inducing loss of weight). For animals showing a clinical sign of 2 or more, the food and the water were presented inside the cage to facilitate eating and drinking.
At the onset of clinical signs of EAE, the mice were treated with 200 μl of Compound 51, 53, 57, 59, 101, 104, 105, 111 or 123 dissolved in 2.5% Dimethyl sulfoxide (DMSO) in PBS, while placebo groups were treated with 2.5% Dimethyl sulfoxide (DMSO) in PBS only, by intraperitoneal injection at different time of the clinical evolution.

Glo3/7 = Glo3/7 assay; assay type: biochemical
Caspase-7 = Caspase-7 (Homo sapiens (Human), UniProt P55210); assay: Caspase-7 Inhibitor Drug Screening Kit, fluorometric (AFC liberation); assay type: biochemical
Experimental: as §1

Caspase-9 = Caspase-9 (Homo sapiens (Human), UniProt P55211); assay: Caspase-9 Inhibitor Drug Screening Kit, fluorometric (AFC liberation); assay type: biochemical
Experimental: as §1

Caspase-5 = Caspase-5 (Homo sapiens (Human), UniProt P51878); assay: Caspase-5 Inhibitor Drug Screening Kit, fluorometric (AFC liberation); assay type: biochemical; settings: 30-minute incubation at 37° C.; approximations of the average values; read-out: Caspase enzymatic activity, IC50 (uM) Caspase 5
Experimental: as §1

[2] = 30-minute incubation at 37° C., approximations of the average values, read-out: Caspase enzymatic activity, IC50 (uM) Caspase 3
[3] = 4 h, read-out: % inhibition of PARP cleavage at 50 uM compound, Hela cells, staurosporine 4 hours, 50 uM compound
[4] = FIG. 2, i.p. from day 10 to 16 post immunization, versus placebo
[5] = 30-minute incubation at 37° C., approximations of the average values, read-out: Caspase enzymatic activity, IC50 (uM) Caspase 7
[6] = 30-minute incubation at 37° C., approximations of the average values, read-out: Caspase enzymatic activity, IC50 (uM) Caspase 9
[7] = FIG. 1, i.p. from day 10 to 16 post immunization, versus placebo

Caspase-7, sequence (P55210 whole entry): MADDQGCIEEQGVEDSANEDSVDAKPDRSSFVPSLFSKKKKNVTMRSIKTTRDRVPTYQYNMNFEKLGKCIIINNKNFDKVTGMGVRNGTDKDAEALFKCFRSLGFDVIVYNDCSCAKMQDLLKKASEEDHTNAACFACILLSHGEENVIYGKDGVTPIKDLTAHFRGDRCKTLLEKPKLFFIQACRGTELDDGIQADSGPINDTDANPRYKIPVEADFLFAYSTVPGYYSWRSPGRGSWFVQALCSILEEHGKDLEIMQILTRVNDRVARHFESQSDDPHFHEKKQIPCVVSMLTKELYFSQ
Caspase-3, sequence (P42574 29-277): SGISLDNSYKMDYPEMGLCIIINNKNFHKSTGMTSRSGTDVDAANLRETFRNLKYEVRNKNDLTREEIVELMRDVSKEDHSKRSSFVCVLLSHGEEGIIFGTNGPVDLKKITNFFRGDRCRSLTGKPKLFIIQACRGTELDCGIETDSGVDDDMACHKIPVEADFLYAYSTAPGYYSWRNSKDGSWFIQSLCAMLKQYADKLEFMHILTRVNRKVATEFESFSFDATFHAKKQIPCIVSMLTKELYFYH
Caspase-5, sequence (P51878 137-434): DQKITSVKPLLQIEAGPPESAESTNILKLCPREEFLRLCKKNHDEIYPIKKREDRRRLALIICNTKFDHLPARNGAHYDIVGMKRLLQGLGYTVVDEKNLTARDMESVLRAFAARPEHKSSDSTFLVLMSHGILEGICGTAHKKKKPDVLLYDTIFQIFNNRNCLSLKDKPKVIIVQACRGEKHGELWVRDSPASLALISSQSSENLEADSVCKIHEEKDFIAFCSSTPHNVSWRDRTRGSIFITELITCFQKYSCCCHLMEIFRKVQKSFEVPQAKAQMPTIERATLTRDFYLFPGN
Caspase-9, sequence (P55211 whole entry): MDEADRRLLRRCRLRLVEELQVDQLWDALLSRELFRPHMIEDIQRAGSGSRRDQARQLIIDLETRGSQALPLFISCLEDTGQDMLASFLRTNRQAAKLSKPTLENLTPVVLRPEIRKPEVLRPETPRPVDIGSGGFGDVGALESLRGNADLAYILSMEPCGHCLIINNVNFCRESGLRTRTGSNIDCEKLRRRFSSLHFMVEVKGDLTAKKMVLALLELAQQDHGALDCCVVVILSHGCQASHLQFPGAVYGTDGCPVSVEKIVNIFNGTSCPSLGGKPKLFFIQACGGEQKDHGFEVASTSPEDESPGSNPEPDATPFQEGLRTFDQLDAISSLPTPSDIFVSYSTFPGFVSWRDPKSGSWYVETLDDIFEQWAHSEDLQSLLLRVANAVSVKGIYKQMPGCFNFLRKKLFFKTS
Caspase-1, sequence (P29466 120-404): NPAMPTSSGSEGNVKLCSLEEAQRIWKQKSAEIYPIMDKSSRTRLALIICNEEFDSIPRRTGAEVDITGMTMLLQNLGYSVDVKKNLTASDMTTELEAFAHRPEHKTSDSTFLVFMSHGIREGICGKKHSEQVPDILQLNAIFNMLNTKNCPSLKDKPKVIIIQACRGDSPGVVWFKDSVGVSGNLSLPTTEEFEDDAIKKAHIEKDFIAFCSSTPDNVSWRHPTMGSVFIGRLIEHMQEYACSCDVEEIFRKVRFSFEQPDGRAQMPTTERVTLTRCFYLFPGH

SMILES | IC50 (Caspase-1) [µM] | IC50 (Caspase-3; [2]) [µM] | inhibition at 50 µM [1, 3] [%] | Delay in onset of the disease (EAE in C57BL/6 mice) | Reduction in body weight loss (EAE in C57BL/6 mice) | Reduction in severity of the disease (EAE in C57BL/6 mice) | IC50 (Glo3/7) [µM] | IC50 (Caspase-7; [5]) [µM] | IC50 (Caspase-9; [6]) [µM] | IC50 (Caspase-5) [µM] | Cumulative clinical score (EAE in C57BL/6 mice; [7]) | Disease onset (EAE in C57BL/6 mice; [7]) | Loss of body weight (EAE in C57BL/6 mice; [7]) | clinical severity of the disease (EAE in C57BL/6 mice; [7]) | maximal clinical score (EAE in C57BL/6 mice; [7]) | IC50 (Caspase-3; read-out: IC50 caspase-3) [µM] | IC50 (Caspase-7; read-out: IC50 caspase-7) [µM] | other results
COC(=O)C[C@@H](/C=C/S(C)(=O)=O)NC(=O)[C@@H](NC(=O)[C@@H](NC(=O)[C@H](CC(=O)OC)NC(=O)OCc1ccccc1)c1ccccc1)C(C)C [Compound 101, Z-Asp(β-methyl)-phenylglycine-Val-Asp(β-methyl)methyl vinyl sulfone] | > 3.33 | > 3.33 | 40 | + | ++ | + | 20 | > 3.33 | > 3.33 | > 3.33 |  |  |  |  |  |  |  | inhibition at 50 µM ([1]; Hela cells, 50 uM, read-out: % of inhibition with compound relative to DEVDFMK): 45%; Disease onset (EAE in C57BL/6 mice; [4]): delayed; Loss of body weight (EAE in C57BL/6 mice; [4]): less than placebo; severity of the disease (EAE in C57BL/6 mice; [4]): reduced significantly at the early stage of the disease; Loss of body weight (EAE in C57BL/6 mice; FIG. 3, i.p. from day 14 to 19 post immunization, versus placebo): less than in the placebo group
COC(=O)C[C@@H](/C=C/S(C)(=O)=O)NC(=O)[C@@H](NC(=O)[C@@H](NC(=O)[C@H](CC(=O)OC)NC(=O)OCc1ccccc1)C1Cc2ccccc2C1)C(C)C [Compound 51, Z-Asp(β-methyl)-Indanylglycine-Val-Asp(β-methyl)methyl vinyl sulfone] | > 3 | 1 | > 50 | ++ | +++ | ++ | > 50 | > 3 | > 3 | > 3 | significantly lower compared to placebo | delayed | less than the placebo | reduced significantly | significantly lower compared to placebo |  |  | 
CC(C)[C@H](NC(=O)[C@@H](NC(=O)[C@H](CC(=O)O)NC(=O)OCc1ccccc1)C1Cc2ccccc2C1)C(=O)N[C@H](/C=C/S(C)(=O)=O)CC(=O)O [Compound 57, Z-Asp-Indanylglycine-Val-Aspmethyl vinyl sulfone] | 0.9 | 0.03 | > 50 | + | + | + | 0.1 | 0.2 | > 3.33 | > 3.33 | reduced the cumulative score | without delaying the onset of the disease | did not show and difference compared to placebo | reduced also the clinical severity of the disease | without any significant effect on the maximal score | 0.03 to 0.09 | 0.18 to 0.3 | fold less efficiency against caspase-1 than against group III caspases (Caspase-1): about 29 fold
CC(C)[C@H](NC(=O)[C@H](CCC(=O)O)NC(=O)[C@H](CC(=O)O)NC(=O)OCc1ccccc1)C(=O)N[C@H](/C=C/S(C)(=O)=O)CC(=O)O [Compound 59, Z-Asp-Glu-Val-Aspmethyl vinyl sulfone] | 1.4 | 0.02 |  | ++ | ++ | ++ | 0.09 | 0.04 | 0.5 | > 3.33 |  |  |  |  |  | 0.02 | 0.042 | effectivity in inhibiting PARP cleavage ([1]; Hela cells, staurosporine): showing effectivity especially relative to DEVD-fmk; IC50 (Caspase-9; read-out: IC50 caspase-9): 0.509 µM
